Counter-ions that a name gives are not always drawn.
What follows are molecules tested against T1, DMT1 (Homo sapiens, UniProt P49281) (assay: DMT1 activity assay (IC50 activity level, Table 1)). Conditions: inhibition of DMT1.
T1 sequence (P49281 1-568): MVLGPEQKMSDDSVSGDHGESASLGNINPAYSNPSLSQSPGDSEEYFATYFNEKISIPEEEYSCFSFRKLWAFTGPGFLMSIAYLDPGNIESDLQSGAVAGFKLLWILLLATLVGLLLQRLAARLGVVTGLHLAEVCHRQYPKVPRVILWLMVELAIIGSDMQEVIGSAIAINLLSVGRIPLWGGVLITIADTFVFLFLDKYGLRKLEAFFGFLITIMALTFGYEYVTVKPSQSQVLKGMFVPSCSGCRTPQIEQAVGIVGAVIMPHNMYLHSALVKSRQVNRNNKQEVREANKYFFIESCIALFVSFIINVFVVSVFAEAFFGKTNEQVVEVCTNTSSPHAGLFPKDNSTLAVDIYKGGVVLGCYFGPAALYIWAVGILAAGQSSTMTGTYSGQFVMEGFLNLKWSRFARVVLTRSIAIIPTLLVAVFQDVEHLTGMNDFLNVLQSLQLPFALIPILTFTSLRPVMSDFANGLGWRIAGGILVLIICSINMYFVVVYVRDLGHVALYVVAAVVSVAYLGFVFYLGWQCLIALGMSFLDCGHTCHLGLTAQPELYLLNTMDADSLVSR
Assay type: cell-based
Source text: This example discloses various in vitro assay for testing and profiling test agents against DMT1 stably expressed in cells of either an endogenous or recombinant origin. These assays can use stable cell lines overexpressing DMT1 or intestinal cells and intestinal tissue expressing endogenous DMT1. DMT1 function could also be assessed in other cell types that express DMT1. Of greatest relevance would be the erythrocytes (e.g. K562 cells) or hepatocytes (e.g. […]).
DMT1 function can be assessed in a number of ways, including monitoring fluorescence changes of an iron fluorophore (e.g. calcein), monitoring uptake of radiolabelled iron (^55Fe or ^59Fe) (Picard et al., J. Biol. Chem., 2000, 275(46):35738-45 and Wetli et al., Chem. Biol. 2006 September; 13(9):965-72), or by assessing the current or transport of iron and other metals into the cells or tissues using standard electrophysiological techniques (Gunshin et al., Nature, 1997, 388(6641):482-8.).
Variations of these assays involve alterations of incubation times, the iron status of the cells and tissues (which may be modulated by chemical chelators or by harvesting from iron deficient animals), the metal cation detected and the pH of the reaction can generally be made by conventional techniques known to those skilled in the art.
The Example numbers provided in Table 1 correspond to the Examples herein: […]

Compound | IC50
N=C(N)SC(=O)c1sc(C(=O)SC(=N)N)c(Cl)c1Cl [Example 9, 2-(5-carbamimidoylsulfanecarbonyl-3,4-dichlorothiophene-2-carbonyl)isothiourea dihydrochloride] | ≥ 1000 nM
Cc1c(CSC(=N)N)cccc1CSC(=N)N [Example 3.21, (2-methyl-1,3-phenylene)bis(methylene)dicarbamimidothioate dihydrobromide] | 100 to 1000 nM
N=C(N)SCc1n[nH]c(CSC(=N)N)n1 [Example 3.8, (1H-1,2,4-triazole-3,5-diyl)bis(methylene)dicarbamimidothiodate dihydrochloride] | ≥ 1000 nM
N#Cc1c(CSC(=N)N)cccc1CSC(=N)N [Example 3.14, (2-cyano-1,3-phenylene)bis(methylene)dicarbamimidothioate dihydrobromide] | ≥ 1000 nM
Cc1nc(C)c(CSC(=N)N)c(C)c1CSC(=N)N [Example 8, (2,4,6-trimethylpyridine-3,5-diyl)bis(methylene)dicarbamimidothioate dihydrochloride] | ≥ 1000 nM
N=C(N)SCc1nnc(CSC(=N)N)n1N [Example 3.7, (4-amino-4H-1,2,4-triazole-3,5-diyl)bis(methylene)dicarbamimidothioate dihydrochloride] | ≥ 1000 nM
N=C(N)SCc1c(Cl)c(Cl)c(Cl)c(CSC(=N)N)c1Cl [Example 3.6, (2,4,5,6-tetrachloro-1,3-phenylene)bis(methylene)dicarbamimidothioate dihydrochloride] | ≥ 1000 nM
COc1ccc(CSC(=N)N)cc1CSC(=N)N [Example 6.5, (4-methoxy-1,3-phenylene)bis(methylene)dicarbamimidothioate dihydrobromide] | ≥ 1000 nM
COc1cc(CSC(=N)N)cc(CSC(=N)N)c1 [Example 6.6, (5-methoxy-1,3-phenylene)bis(methylene)dicarbamimidothioate dihydrobromide] | ≥ 1000 nM
N=C(N)SCc1ccc2ccccc2c1CSC(=N)N [Example 3.20, naphthalene-1,2-diylbis(methylene)dicarbamimidothioate dihydrobromide] | ≥ 1000 nM
Cc1cc(CSC(=N)N)c(O)c(CSC(=N)N)c1 [Example 6.2, (2-hydroxy-5-methyl-1,3-phenylene)bis(methylene)dicarbamimidothioate dihydrobromide] | ≥ 1000 nM
CC(C)(SC(=N)N)c1cccc(C(C)(C)SC(=N)N)c1 [Example 6, 2-{1-[3-(1-carbamimidoylsulfanyl-1-methylethyl)phenyl]-1-methylethyl}-isothiourea dihydrobromide] | ≥ 1000 nM
N=C(N)SCc1cccc2cccc(CSC(=N)N)c12 [Example 3.13, naphthalene-1,8-diylbis(methylene)dicarbamimidothioate dihydrobromide] | ≥ 1000 nM
N=C(N)SCc1ccc(CSC(=N)N)s1 [Example 3.9, thiophene-2,5-diylbis(methylene)dicarbamimidothioate dihydrochloride] | ≥ 1000 nM
Cc1cc(C)c(CNC(=N)N)c(C)c1CNC(=N)N [Example 1, N-(3-guanidinomethyl-2,4,6-trimethylbenzyl)guanidine, bis(p-toluenesulfonate)] | ≥ 1000 nM
N=C(N)SCc1cccc(CSC(=N)N)c1 [Example 3.2, 1,3-phenylenebis(methylene)dicarbamimidothioate dihydrobromide] | ≥ 1000 nM
CC(C)c1cc(C(C)C)c(CSC(=N)N)cc1CSC(=N)N [Example 3.1, (4,6-diisopropyl-1,3-phenylene)bis(methylene)dicarbamimidothioate dihydrobromide] | ≥ 1000 nM

Compound | IC50
Cc1c(CSC(=N)N)cc(CSC(=N)N)c(C)c1Br [Example 3.17, (5-bromo-4,6-dimethyl-1,3-phenylene)bis(methylene) dicarbamimidothioate dihydrochloride] | ≥ 1000 nM
Cc1cc(C)c(CSC(=N)N)c(C)c1CSC(=N)N [Example 3, (2,4,6-trimethyl-1,3-phenylene)bis(methylene)dicarbamimidothioate dihydrochloride] | 100 to 1000 nM
Cc1c(C)c(C)c(CSC(=N)N)c(CSC(=N)N)c1C [Example 3.22, (3,4,5,6-tetramethyl-1,2-phenylene)bis(methylene)dicarbamimidothioate dihydrobromide] | ≥ 1000 nM
Cc1c(CSC(=N)N)sc2sc(CSC(=N)N)c(C)c12 [Example 6.4, (3,4-dimethylthieno[2,3-b]thiophene-2,5-diyl)bis(methylene)dicarbamimidothioate dihydrobromide] | ≥ 1000 nM
Cc1c(CSC(=N)N)sc(CSC(=N)N)c1C [Example 6.3, (3,4-dimethylthiophene-2,5-diyl)bis(methylene)dicarbamimidothioate dihydrobromide] | ≥ 1000 nM
COc1c(CSC(=N)N)cc(C)cc1CSC(=N)N [Example 3.18, (2-methoxy-5-methyl-1,3-phenylene)bis(methylene)dicarbamimidothioate dihydrobromide] | ≥ 1000 nM
N=C(N)Sc1cccc(SC(=N)N)c1 [Example 5, 1,3-phenylene dicarbamimidothioate dihydroiodide] | ≥ 1000 nM
Cc1cc(CSC(=N)N)cc(CSC(=N)N)c1 [Example 3.3, (5-methyl-1,3-phenylene)bis(methylene)dicarbamimidothioate dihydrobromide] | ≥ 1000 nM
N=C(N)SCc1cccc(CSC(=N)N)n1 [Example 3.12, pyridine-2,6-diylbis(methylene)dicarbamimidothioate dihydrobromide] | ≥ 1000 nM
Cc1c(CSC(=N)N)c(C)c(CSC(=N)N)c(C)c1CSC(=N)N [Example 3.11, (2,4,6-trimethylbenzene-1,3,5-triyl)tris(methylene) tricarbamimidothioate trihydrobromide] | ≥ 1000 nM
Cc1cc(C)c(CSC(=N)N)cc1CSC(=N)N [Example 3.16, (4,6-dimethyl-1,3-phenylene)bis(methylene)dicarbamimidothioate dihydrochloride] | 100 to 1000 nM
N=C(N)SCc1ccccc1CSC(=N)N [Example 3.15, (1,2-phenylene)bis(methylene)dicarbamimidothioate dihydrobromide] | ≥ 1000 nM
Cc1c(O)c(C)c(CSC(=N)N)c(C)c1CSC(=N)N [Example 3.19, (5-hydroxy-2,4,6-trimethyl-1,3-phenylene)bis(methylene) dicarbamimidothioate dihydrochloride] | 100 to 1000 nM
CCOC(=O)c1cc(C(=O)OCC)c(CSC(=N)N)cc1CSC(=N)N [Example 3.4, diethyl 4,6-bis(carbamimidoylthiomethyl)isophthalate dihydrobromide] | ≥ 1000 nM
Cc1c(C)c(CSC(=N)N)c(C)c(CSC(=N)N)c1C [Example 3.5, (2,4,5,6-tetramethyl-1,3-phenylene)bis(methylene)dicarbamimidothioate dihydrochloride] | ≥ 1000 nM
Cc1cc(C)c(C(C)SC(=N)N)c(C)c1C(C)SC(=N)N (stereo not shown) [Example 6.1, 2-{1-[3-(1-carbamimidoylsulfanylethyl)-2,4,6-trimethylphenyl]ethyl}-isothiourea dihydrobromide] | 100 to 1000 nM
N=C(N)SCc1sc(CSC(=N)N)c(-c2ccccc2)c1-c1ccccc1 [Example 3.10, (3,4-diphenylthiophene-2,5-diyl)bis(methylene)dicarbamimidothioate dihydrobromide] | ≥ 1000 nM
